# Test results taken from patent EP1022029A1, “NOOTROPIC AGENT” (priority 1997, dated 1999).
# Where two headings read alike, the source gives them in different places.
# What was measured:
# [1] = test system: postsynaptic potential of a slice of the rat hippocampus; experiment: Paired-pulse facilitation of the postsynaptic potential in hippocampal slices; type: cell-based; settings: nefiracetam-administered slices; interpulse intervals 50 to 150 msec
# Protocol: Paired pulses were applied to slices at varying interpulse intervals, between 50 and 150 msec before and 10 minute after the administration of nefiracetam. […] Briefly, reaction induced by the first pulse application was potentiated to a maximum of 120% by the next pulse application. However, the pulses were consistently lower than those obtained with slices that had not been administered nefiracetam (Table 6); therefore, nefiracetam is considered to maximally enhance release of glutamate serving as an excitatory neurotransmitter.
# [2] = target: T1, α7 receptor (Rattus norvegicus, UniProt Q05941); experiment: ACh-evoked currents in α7 receptors expressed in Xenopus oocytes (two-electrode voltage clamp); type: cell-based; settings: for normalized response (%): nef(+), n=5
# T1 construct: expressed in transfected cells; host or cells: Xenopus oocytes injected with in vitro transcribed mRNA
# Protocol: Two-electrode voltage-clamp technique was used to record expression α4β2 or α7 receptors in oocytes. […] The holding voltage was -30 or -60 mV for α4β2-nAChR or α7-nAChR, respectively. Downward directions correspond to inward currents.
# mRNAs for the rat α4β2 receptor and α7 receptor, GLUR1, 2, 3 receptors, and NP152 and NP153 were constructed as described previously. Xenopus oocytes were manually separated from the ovary, and subjected to treatment with collagenase (0.5 mg/ml). Thereafter, the treated oocytes were incubated overnight in Barth's solution (in mM, 88 NaCl, 1 KCl, 2.4 NaHCO3, 0.82 MgSO4, 0.33 […], 0.41 CaCl2, and 7.5 Tris; pH 7.6). The oocytes were injected with the α4β2 or α7 receptor mRNA and incubated at 18°C. In some cases, NP152 and NP153 were co-expressed with the α4β2 and α7 receptors. The injected oocytes were incubated and transferred to a recording chamber 2-7 days after incubation and continuously superfused at room temperature (20-22°C) with a standard frog Ringer's solution [in mM: 115 NaCl, 2 KCl, 1.8 CaCl2, 5 HEPES; pH 7.0]. To remove the effect of endogenous muscarinic ACh receptor, 1 µM atropine was added to the extracellular solution. ACh-evoked currents were recorded by use of two-electrode voltage clamp techniques and an amplifier (GeneClamp-500, Axon Instrument, Inc. USA). The currents were analyzed on a microcomputer by pClamp software (Axon Instrument, Inc.; Version 6). From the results, an assessment was made as to whether nefiracetam actually acts on the nACh receptors.
# [3] = test system: glutamate release from hippocampal slices; type: cell-based, guinea pig
# [4] = target: T2, AMPA (GluR1, 2, 3) receptor (Rattus norvegicus, UniProt P19490+P19491+P19492); experiment: Kainate-evoked currents in GluR1, 2, 3 receptors expressed in Xenopus oocytes; type: cell-based; settings: nefiracetam 1 µM; kainate 100 µM; holding voltage -30 mV; n=5
# T2 construct: expressed in transfected cells; host or cells: Xenopus oocytes injected with mRNA
# Protocol: GluR 1, 2, 3 receptors which are AMPA receptors were expressed in Xenopus oocytes. Cell membrane currents evoked with kainate (100 µM) were recorded before and after administration of nefiracetam (1 µM) (n=5). […] The holding voltage was -30 mV. • (B): An oocyte expressing normal ACh receptors was loaded with Calcium Green. In Ca^2+-free (extCa^2+(-)) extracellular solution (extCa^2+(-)) and ordinary (i.e., Ca^2+-containing) extracellular solution, intracellular Ca^2+ ([Ca^2+]i) and Ach-evoked currents (IA) were recorded. The Ca^2+ rise was normalized by dividing "Δ increase of fluorescence intensity (DI)" by "base intensity (I)", and further by "current amplitude obtained with Ca^2+-free solution (2) (µA)". Indicated by "(1)" are currents obtained with Ca^2+-containing solution.
# GluR1, 2, 3 receptors were expressed in Xenopus oocytes. Cell membrane currents evoked by kainate (100 µM) were recorded (n = 5) before and after treatment with nefiracetam (1 µM). The holding voltage was fixed at -30 mV.
# [5] = target: T3, nACh receptors (α, β, γ, δ) of Torpedo (Tetronarce californica, UniProt P02710+P02712+P02714+P02718); experiment: ACh-evoked currents in normal nACh receptors expressed in Xenopus oocytes (two-electrode voltage clamp); type: cell-based
# T3 construct: expressed in transfected cells; host or cells: Xenopus oocytes
# Protocol: Cell membrane currents were recorded by use of two-electrode voltage clamp techniques (T. Nishizaki et al., Ikeuchi, Brain Res. 687, 214, 1995). ACh (100 µM) was administered to a single oocyte expressing normal ACh receptors at 10-min intervals before and after 10-min treatment of the oocyte with nefiracetam. The holding voltage was -30 mV. In accordance with a conventional method, wild-type acetylcholine (nACh) receptors were expressed in Xenopus oocytes (K. Sumikawa et al., Mol. Brain Res. 5, 183, 1989), and by the application of ACh (100 µM), inward membrane currents were evoked (Table 13). Currents were recorded at 10-min intervals. During the recording period, spontaneous attenuation of the currents was within 5% (data not shown). […] After the drug was washed out, the amplitude gradually recovered (Table 13). The reductions in current were 70% (n=7) with 0.01 µM and 62% with 0.1 µM nefiracetam.
# ACh (100 µM) was applied to each of an oocyte expressing normal ACh receptors and an oocyte expressing mutant ACh receptors (mγΔPKA/Ser353, 354m δΔPKA/Ser361,362) lacking PKA phosphorylation sites, before and after treatment with nefiracetam (0.01 µM). The oocytes expressing normal ACh receptors were treated with H-89 (1 µM) from 15 min before recording, or with pertussis toxin (0.1 µg/ml) for 24h prior to experiments. The currents illustrated in Table 16 were recorded before and 30 min after treatment with nefiracetam. The holding voltage was - 30 mV. In Table 16, each point represents the average obtained from seven oocytes.
# ACh (100 µM) was applied to each of an oocyte expressing normal ACh receptors and an oocyte expressing mutant ACh receptors (mγΔPKA/Ser353,354m δΔPKA/Ser361,362) lacking PKA phosphorylation sites, in the presence and absence of GF109203X (100 nM) or in calcium-free extracellular solution.
# [6] = test system: mutant ACh receptors lacking potent PKC phosphorylation sites on the α and δ subunits (mαΔPKC/Ser333m δΔPKC/Ser377); experiment: ACh-evoked currents in mutant ACh receptors lacking PKC phosphorylation sites expressed in Xenopus oocytes; type: cell-based; settings: nefiracetam 1 µM
# T3 sequence (P02718 22-522): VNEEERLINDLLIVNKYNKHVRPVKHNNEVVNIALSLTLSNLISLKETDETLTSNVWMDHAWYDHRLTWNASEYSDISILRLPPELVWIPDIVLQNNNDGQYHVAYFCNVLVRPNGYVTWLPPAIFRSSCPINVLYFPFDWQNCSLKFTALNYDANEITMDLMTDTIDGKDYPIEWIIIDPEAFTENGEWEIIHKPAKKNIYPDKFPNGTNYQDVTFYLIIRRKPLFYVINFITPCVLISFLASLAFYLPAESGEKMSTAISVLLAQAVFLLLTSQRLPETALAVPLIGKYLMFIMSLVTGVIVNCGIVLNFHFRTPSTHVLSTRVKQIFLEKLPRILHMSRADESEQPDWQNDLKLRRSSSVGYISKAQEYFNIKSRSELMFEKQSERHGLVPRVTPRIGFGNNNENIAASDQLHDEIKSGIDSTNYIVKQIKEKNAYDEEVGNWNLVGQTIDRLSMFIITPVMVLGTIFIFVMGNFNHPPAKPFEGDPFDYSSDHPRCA
# T3 sequence (P02712 25-493): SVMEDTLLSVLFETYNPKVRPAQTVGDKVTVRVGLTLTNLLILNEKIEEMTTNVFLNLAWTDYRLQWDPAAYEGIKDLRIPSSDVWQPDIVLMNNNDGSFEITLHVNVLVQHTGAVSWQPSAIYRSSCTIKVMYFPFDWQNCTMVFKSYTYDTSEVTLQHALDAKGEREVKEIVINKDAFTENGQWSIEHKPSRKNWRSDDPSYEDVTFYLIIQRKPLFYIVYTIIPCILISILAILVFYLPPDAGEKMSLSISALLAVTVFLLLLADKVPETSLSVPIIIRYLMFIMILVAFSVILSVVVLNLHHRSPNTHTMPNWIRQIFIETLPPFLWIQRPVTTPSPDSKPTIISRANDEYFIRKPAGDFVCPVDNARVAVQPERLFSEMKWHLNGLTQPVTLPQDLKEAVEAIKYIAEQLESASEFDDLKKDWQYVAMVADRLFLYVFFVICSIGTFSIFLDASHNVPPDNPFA
# T3 sequence (P02710 25-461): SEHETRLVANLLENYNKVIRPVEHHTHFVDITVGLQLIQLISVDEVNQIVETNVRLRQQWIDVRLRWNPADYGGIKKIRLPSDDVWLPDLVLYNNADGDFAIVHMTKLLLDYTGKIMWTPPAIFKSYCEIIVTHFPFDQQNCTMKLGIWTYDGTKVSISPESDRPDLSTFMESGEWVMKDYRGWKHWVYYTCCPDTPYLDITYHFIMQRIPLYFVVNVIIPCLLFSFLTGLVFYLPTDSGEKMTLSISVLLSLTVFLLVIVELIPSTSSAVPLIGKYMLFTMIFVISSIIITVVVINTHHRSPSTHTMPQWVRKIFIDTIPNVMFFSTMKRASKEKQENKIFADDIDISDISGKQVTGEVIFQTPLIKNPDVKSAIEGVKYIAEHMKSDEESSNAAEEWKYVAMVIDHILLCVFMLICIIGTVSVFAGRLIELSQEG
# T3 sequence (P02714 18-506): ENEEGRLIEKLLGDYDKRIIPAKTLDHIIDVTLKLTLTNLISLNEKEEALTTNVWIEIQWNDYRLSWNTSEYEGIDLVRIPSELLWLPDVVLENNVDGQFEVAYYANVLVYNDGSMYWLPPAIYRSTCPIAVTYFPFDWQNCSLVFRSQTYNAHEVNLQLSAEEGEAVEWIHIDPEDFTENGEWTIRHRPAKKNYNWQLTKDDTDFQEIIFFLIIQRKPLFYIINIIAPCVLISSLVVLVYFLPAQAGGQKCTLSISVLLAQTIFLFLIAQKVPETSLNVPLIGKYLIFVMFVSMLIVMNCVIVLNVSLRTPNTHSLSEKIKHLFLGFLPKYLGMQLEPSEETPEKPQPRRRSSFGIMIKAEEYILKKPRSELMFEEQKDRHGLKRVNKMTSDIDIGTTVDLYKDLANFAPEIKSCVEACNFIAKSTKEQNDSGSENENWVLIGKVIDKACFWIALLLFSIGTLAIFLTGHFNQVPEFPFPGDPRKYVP
# T1 sequence (Q05941 23-502): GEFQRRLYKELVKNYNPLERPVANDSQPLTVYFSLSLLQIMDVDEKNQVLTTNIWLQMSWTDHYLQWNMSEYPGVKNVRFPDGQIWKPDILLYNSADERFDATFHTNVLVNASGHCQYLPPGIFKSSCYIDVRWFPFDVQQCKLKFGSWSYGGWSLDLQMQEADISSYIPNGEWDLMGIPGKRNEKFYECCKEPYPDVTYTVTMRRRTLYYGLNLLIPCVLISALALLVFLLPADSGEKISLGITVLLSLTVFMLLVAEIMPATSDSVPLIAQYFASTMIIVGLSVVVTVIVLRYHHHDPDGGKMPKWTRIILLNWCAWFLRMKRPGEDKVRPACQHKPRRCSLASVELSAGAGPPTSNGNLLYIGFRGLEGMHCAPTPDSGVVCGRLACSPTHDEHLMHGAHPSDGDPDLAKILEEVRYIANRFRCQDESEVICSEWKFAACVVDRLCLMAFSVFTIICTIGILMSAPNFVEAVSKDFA
# T2 sequence (P19490 19-907): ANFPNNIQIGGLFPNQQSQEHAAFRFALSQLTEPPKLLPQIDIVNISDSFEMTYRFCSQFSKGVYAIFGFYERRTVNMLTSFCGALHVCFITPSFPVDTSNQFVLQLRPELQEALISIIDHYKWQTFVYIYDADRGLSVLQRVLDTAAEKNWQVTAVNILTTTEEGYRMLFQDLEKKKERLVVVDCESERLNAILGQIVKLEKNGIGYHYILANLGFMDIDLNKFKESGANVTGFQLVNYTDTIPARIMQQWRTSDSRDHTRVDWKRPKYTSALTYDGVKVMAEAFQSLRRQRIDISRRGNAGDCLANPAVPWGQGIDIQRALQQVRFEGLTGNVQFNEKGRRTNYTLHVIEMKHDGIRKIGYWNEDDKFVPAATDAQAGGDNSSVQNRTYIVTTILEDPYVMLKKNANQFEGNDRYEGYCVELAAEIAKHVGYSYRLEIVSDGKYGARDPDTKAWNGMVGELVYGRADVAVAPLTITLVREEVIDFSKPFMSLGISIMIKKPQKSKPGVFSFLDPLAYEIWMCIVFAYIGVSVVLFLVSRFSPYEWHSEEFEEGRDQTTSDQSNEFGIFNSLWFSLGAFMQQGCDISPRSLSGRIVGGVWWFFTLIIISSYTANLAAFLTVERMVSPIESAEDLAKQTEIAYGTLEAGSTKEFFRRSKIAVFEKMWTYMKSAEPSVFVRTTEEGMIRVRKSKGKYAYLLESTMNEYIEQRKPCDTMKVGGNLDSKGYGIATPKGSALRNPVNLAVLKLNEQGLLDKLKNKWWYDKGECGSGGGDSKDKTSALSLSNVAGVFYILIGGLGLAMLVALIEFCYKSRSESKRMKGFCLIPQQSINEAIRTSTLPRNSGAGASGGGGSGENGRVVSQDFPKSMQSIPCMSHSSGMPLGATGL
# T2 sequence (P19491 22-883): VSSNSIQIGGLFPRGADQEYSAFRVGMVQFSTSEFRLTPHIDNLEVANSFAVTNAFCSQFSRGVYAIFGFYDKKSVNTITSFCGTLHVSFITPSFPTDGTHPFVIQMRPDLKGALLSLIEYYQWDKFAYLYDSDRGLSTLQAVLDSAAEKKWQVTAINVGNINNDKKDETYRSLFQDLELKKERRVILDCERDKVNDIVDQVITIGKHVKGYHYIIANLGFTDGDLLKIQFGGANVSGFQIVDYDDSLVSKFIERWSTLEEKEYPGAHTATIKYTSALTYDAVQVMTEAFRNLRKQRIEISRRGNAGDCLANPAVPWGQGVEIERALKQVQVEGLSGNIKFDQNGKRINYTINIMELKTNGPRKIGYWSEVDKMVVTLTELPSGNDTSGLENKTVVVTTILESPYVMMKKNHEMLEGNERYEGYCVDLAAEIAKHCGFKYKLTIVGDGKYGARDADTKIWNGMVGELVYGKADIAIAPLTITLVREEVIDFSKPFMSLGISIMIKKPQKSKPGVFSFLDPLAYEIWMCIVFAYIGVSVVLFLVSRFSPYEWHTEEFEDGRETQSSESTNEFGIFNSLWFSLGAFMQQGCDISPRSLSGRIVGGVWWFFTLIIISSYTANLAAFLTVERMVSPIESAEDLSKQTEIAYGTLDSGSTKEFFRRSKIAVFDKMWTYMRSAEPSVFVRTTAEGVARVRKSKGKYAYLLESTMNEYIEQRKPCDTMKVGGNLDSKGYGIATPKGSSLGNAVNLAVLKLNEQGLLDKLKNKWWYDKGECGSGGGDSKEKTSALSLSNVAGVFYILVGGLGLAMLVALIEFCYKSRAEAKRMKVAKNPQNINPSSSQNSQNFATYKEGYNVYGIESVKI
# T2 sequence (P19492 23-888): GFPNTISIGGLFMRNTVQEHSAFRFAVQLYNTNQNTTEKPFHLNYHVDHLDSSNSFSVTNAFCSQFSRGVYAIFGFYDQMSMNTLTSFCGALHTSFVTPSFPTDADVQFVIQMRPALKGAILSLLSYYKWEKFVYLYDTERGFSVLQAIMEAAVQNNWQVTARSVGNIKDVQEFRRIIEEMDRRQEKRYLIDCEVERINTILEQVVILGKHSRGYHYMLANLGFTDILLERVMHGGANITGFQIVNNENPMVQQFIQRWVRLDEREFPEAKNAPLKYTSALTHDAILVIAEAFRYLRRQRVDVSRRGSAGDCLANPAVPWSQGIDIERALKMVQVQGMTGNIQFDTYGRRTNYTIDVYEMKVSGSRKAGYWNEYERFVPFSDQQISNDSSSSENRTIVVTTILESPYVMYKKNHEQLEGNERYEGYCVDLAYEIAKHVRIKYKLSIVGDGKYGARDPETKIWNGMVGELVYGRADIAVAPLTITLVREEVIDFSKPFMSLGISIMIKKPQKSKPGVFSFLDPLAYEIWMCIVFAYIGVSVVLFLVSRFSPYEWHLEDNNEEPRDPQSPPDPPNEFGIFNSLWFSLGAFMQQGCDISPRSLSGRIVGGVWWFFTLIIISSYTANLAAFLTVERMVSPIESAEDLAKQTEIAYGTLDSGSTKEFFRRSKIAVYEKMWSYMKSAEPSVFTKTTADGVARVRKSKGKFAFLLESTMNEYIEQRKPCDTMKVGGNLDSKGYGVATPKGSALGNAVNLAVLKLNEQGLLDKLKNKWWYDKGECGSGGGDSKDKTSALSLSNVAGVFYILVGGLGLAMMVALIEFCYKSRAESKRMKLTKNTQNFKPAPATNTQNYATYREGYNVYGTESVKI
smiles,measurement,setting,value
"Cc1cccc(C)c1NC(=O)CN1CCCC1=O [nefiracetam, 2-oxo-1-pyrrolidinylacetic acid 2,6-dimethylanilide]",paired-pulse facilitation: reaction to first pulse potentiated by the next pulse,[1],≤ 120%
same,concentration of maximum potentiation of ACh-evoked currents,[2],1 µM
same,activity at 1 µM,"[2]; 1 h, nefiracetam 1 µM, 60 minutes after treatment, read-out: ACh-evoked currents potentiated, reaching",195%
same,normalized response (%),"[2]; ACh 0.1 µM, nefiracetam 1 µM",0%
same,normalized response (%),"[2]; ACh 1 µM, nefiracetam 1 µM",1.5%
same,normalized response (%),"[2]; ACh 10 µM, nefiracetam 1 µM",3%
same,normalized response (%),"[2]; ACh 100 µM, nefiracetam 1 µM",35%
same,normalized response (%),"[2]; ACh 1000 µM, nefiracetam 1 µM",100%
same,activity at 0.01 µM,"[2]; Nefiracetam 0.01 µM, n = 5 to 8, read-out: % of the original amplitude",97.4 ± 5.5%
same,activity at 0.1 µM,"[2]; Nefiracetam 0.1 µM, n = 5 to 8, read-out: % of the original amplitude",181 ± 10.8%
same,activity at 1 µM,"[2]; Nefiracetam 1 µM, n = 5 to 8, read-out: % of the original amplitude",195 ± 8.8%
same,activity at 10 µM,"[2]; Nefiracetam 10 µM, n = 5 to 8, read-out: % of the original amplitude",116 ± 7.2%
same,currents potentiated to,[2]; in the presence of the inactive PKC inhibitory peptide (NP153; iPKCI),193.6%
same,concentration at which potentiation of ACh-evoked currents was observed,[2]; lowest effective concentration,≥ 0.01 µM
same,effect on glutamate release,"[3]; 1 µM, depolarization by electrical stimulation",significantly increased
same,Amount of released glutamate,"[3]; St (ES+) electrical stimulation, nefiracetam 1 µM, tetrodotoxin 0.5 µM, α-bungarotoxin 50 nM, mecamylamine 3 µM",3.23 ± 0.5 (a) nmol/mg protein/10min.
same,"effect on AMPA (GluR1, 2, 3) receptor currents (Fig. 1)",[4],never potentiated
same,inhibition at 0.01 µM,"[5]; 0.01 µM nefiracetam for 10 min, n=7, read-out: reduction in ACh-evoked current",70%
same,inhibition at 0.1 µM,"[5]; 0.1 µM nefiracetam for 10 min, read-out: reduction in ACh-evoked current",62%
same,activity at 1 µM,"[5]; 1.5 h, 1 µM, 10-min treatment, 90 min after washing-out, n=7, read-out: ACh-evoked currents enhanced, reaching",243%
same,activity at 10 µM,"[5]; 1.5 h, 10 µM, 10-min treatment, 90 min after washing-out, n=7, read-out: ACh-evoked currents enhanced, reaching",255%
same,ACh-evoked currents reduced to,"[5]; nefiracetam in the presence of GF109203X, 30 minutes after administration, n=7",60%
same,current potentiation in mutant ACh receptors lacking PKC phosphorylation sites,[6],exhibited no current potentiation
